Laboratory results from ChEMBL document CHEMBL2346553, “Synthesis and evaluation of non-dimeric HCV NS5A inhibitors” (Bioorg Med Chem Lett, 2013).

Assays:
[1] = in vitro; conditions: human, HuH7 cells
[2] = in vitro; conditions: human, pbmc
[3] = in vitro; conditions: human, CEM cells
[4] = system: Hepatitis C virus; test: microbe, parasite or virus in culture; conditions: genotype 1b, Huh-7
[5] = in vitro; conditions: chlorocebus sabaeus, Vero cells

| EC50 [4] [µM] | EC90 [4] [µM] | SMILES | CC50 [1] [µM] | CC50 [2] [µM] | CC50 [3] [µM] | CC50 [5] [µM] |
| --- | --- | --- | --- | --- | --- | --- |
| > 0.1 |  | COC(=O)N[C@H](C(=O)N1CCC[C@H]1c1ncc(-c2ccc(-c3ccccc3C(F)(F)F)cc2)[nH]1)C(C)C | > 1 | 24 | 75 | 13 |
| > 0.1 |  | COC(=O)N[C@H](C(=O)N1CCC[C@H]1c1ncc(-c2ccc(-c3cccc(C(F)(F)F)c3)cc2)[nH]1)C(C)C | > 1 | 44 | 32 | 12 |
| > 0.1 |  | COC(=O)N[C@H](C(=O)N1CCC[C@H]1c1ncc(-c2ccc(-c3ccc(OC(F)(F)F)cc3)cc2)[nH]1)C(C)C | > 1 | 11 | 10 | 10 |
| 0.005 | 0.017 | COC(=O)N[C@H](C(=O)N1CCC[C@H]1c1ncc(-c2ccc(-c3ccc(O)cc3)cc2)[nH]1)C(C)C | > 1 | 70 | 55 | 13 |
